Reference: ChEMBL document CHEMBL5584296, “Discovery of Novel Pyrimidine-Based Derivatives as Nav1.2 Inhibitors with Efficacy in Mouse Models of Epilepsy” (J Med Chem, 2024)

How the values were obtained:
[1] = Neurotoxicity in male ICR mouse assessed as motor impairment at 150 mg/kg, ip administered for 30 mins by rotarod test relative to control; format: toxicity, organism-based; details: in vivo, 0.5 h
[2] = target: T1, Sodium channel protein type 2 subunit alpha (Homo sapiens, UniProt Q99250); assay: Inhibition of human Nav1.2 expressed in HEK293 cells assessed as effect on steady state activation by measuring half activation potential at 20 uM (reference value: -37 mV); format: cell-based
Target sequence in this assay (Q99250 whole entry, looked up): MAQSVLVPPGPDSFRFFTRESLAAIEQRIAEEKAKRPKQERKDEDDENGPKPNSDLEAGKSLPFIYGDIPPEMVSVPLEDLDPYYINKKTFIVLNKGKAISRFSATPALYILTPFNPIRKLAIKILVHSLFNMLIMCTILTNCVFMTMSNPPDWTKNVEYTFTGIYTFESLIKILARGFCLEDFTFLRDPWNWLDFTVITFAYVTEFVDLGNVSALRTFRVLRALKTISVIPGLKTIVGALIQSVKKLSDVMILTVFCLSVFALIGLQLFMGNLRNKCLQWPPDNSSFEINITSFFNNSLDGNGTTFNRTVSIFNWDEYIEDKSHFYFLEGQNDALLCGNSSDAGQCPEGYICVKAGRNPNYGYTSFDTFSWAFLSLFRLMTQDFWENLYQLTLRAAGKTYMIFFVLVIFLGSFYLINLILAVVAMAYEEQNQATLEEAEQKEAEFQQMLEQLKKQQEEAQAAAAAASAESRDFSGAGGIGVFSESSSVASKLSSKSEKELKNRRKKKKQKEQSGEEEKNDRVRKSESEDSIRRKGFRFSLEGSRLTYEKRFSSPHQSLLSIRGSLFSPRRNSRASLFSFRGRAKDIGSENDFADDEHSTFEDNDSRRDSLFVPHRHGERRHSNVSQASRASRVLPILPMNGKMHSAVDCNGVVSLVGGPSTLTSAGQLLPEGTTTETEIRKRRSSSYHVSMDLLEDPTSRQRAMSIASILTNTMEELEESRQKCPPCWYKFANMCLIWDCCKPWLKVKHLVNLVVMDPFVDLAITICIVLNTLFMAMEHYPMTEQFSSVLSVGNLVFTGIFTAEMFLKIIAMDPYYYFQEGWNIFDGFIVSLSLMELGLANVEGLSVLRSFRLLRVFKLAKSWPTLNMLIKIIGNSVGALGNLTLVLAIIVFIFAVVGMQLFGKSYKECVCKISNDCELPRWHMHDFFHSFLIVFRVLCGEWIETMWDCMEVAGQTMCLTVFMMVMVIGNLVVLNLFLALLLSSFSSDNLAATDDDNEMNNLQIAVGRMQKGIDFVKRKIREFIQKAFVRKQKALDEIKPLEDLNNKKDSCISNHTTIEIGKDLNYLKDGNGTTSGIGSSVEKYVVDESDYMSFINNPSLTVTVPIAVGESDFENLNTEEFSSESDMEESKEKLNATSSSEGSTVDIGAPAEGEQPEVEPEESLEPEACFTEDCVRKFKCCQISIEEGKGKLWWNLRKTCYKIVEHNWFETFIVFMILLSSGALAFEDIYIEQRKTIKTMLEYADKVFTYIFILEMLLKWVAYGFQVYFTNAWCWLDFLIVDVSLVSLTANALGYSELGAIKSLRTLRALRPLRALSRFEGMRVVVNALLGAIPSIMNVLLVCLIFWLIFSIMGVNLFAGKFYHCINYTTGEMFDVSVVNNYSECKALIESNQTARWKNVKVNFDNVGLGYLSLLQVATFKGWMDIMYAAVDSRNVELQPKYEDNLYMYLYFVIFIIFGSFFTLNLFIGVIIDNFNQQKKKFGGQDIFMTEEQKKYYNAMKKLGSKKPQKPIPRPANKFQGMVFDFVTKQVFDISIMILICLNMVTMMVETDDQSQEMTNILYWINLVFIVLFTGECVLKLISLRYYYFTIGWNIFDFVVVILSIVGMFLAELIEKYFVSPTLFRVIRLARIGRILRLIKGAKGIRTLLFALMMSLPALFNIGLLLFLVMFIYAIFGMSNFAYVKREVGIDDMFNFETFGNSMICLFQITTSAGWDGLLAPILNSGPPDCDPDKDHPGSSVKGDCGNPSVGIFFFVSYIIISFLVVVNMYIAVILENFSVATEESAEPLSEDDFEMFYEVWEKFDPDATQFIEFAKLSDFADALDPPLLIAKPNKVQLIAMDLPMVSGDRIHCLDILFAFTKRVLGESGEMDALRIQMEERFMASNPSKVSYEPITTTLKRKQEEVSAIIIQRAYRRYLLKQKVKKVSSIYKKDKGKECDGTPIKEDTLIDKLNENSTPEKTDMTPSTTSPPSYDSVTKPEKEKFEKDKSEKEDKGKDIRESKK

Mus musculus [3] = assay: Antiepileptic activity in MES-induced seizure male ICR mouse model assessed as protection against tonic hind limb extension at 30 mg/kg, ip measured after 30 mins relative to control; format: functional; details: 0.5 h
[4] = target: T1, Sodium channel protein type 2 subunit alpha; assay: Inhibition of human Nav1.2 expressed in HEK293 cells at -40 mv holding potential measured after 5 mins by whole cell voltage clamp electrophysiological analysis; format: cell-based
Target sequence in this assay (Q99250 whole entry): as the sequence (Q99250 whole entry, looked up) above

[5] = Neurotoxicity in male ICR mouse assessed as motor impairment at 300 mg/kg, ip administered for 30 mins by rotarod test relative to control; format: toxicity, organism-based; details: in vivo, 0.5 h
Mus musculus [6] = assay: Antiepileptic activity in 6 Hz(32 mA)-induced seizure male C57BL mouse model administered intraperitoneally for 30 mins by epilepsy test; format: functional; details: 0.5 h, route ip
[7] = target: Sodium channel protein type 1 subunit alpha (Homo sapiens) (UniProt P35498); assay: Inhibition of human Nav1.1 expressed in HEK293 cells assessed as test to control ratio at 1 uM by whole cell voltage clamp electrophysiological analysis; format: cell-based
[8] = target: T1, Sodium channel protein type 2 subunit alpha; assay: Inhibition of human Nav1.2 expressed in HEK293 cells assessed as test to control ratio at 0.1 uM measured after 5 mins by whole cell voltage clamp electrophysiological analysis; format: cell-based
Target sequence in this assay (Q99250 whole entry, looked up): as above

Mus musculus [9] = assay: Antiepileptic activity in 6 Hz(32 mA)-induced seizure male C57BL mouse model assessed as protection against seizure at 50 mg/kg, ip administered for 30 mins by epilepsy test; format: functional; details: 0.5 h
[10] = target: T2, Sodium channel protein type 5 subunit alpha (Homo sapiens, UniProt Q14524); assay: Inhibition of human Nav1.5 expressed in CHL cells assessed as test to control ratio at 1 uM by whole cell voltage clamp electrophysiological analysis; format: cell-based
Mus musculus [11] = assay: Antiepileptic activity in MES-induced seizure male ICR mouse model assessed as protection against tonic hind limb extension at 10 mg/kg, ip measured after 30 mins relative to control; format: functional; details: 0.5 h
Mus musculus [12] = assay: Antiepileptic activity in 6 Hz(32 mA)-induced seizure male C57BL mouse model assessed as protection against seizure at 10 mg/kg, ip administered for 30 mins by epilepsy test; format: functional; details: 0.5 h
[13] = target: T1, Sodium channel protein type 2 subunit alpha; assay: Inhibition of human Nav1.2 expressed in HEK293 cells at -120 mv holding potential measured after 5 mins by whole cell voltage clamp electrophysiological analysis; format: cell-based
Target sequence in this assay (Q99250 whole entry): as the sequence (Q99250 whole entry, looked up) above

Mus musculus [14] = assay: Antiepileptic activity in 6 Hz(32 mA)-induced seizure male C57BL mouse model assessed as protection against seizure at 30 mg/kg, ip administered for 30 mins by epilepsy test; format: functional; details: 0.5 h
[15] = Neurotoxicity in male ICR mouse assessed as motor impairment at 250 mg/kg, ip administered for 30 mins by rotarod test relative to control; format: toxicity, organism-based; details: in vivo, 0.5 h
[16] = target: T2, Sodium channel protein type 5 subunit alpha; assay: Inhibition of human Nav1.5 expressed in CHL cells assessed as test to control ratio at 0.1 uM by whole cell voltage clamp electrophysiological analysis; format: cell-based
[17] = target: Sodium channel protein type 8 subunit alpha (Homo sapiens) (UniProt Q9UQD0); assay: Inhibition of human Nav1.6 expressed in CHO cells assessed as test to control ratio at 0.1 uM by whole cell voltage clamp electrophysiological analysis; format: cell-based
Chain of Sodium channel protein type 8 subunit alpha (Homo sapiens) (Q9UQD0 whole entry, looked up): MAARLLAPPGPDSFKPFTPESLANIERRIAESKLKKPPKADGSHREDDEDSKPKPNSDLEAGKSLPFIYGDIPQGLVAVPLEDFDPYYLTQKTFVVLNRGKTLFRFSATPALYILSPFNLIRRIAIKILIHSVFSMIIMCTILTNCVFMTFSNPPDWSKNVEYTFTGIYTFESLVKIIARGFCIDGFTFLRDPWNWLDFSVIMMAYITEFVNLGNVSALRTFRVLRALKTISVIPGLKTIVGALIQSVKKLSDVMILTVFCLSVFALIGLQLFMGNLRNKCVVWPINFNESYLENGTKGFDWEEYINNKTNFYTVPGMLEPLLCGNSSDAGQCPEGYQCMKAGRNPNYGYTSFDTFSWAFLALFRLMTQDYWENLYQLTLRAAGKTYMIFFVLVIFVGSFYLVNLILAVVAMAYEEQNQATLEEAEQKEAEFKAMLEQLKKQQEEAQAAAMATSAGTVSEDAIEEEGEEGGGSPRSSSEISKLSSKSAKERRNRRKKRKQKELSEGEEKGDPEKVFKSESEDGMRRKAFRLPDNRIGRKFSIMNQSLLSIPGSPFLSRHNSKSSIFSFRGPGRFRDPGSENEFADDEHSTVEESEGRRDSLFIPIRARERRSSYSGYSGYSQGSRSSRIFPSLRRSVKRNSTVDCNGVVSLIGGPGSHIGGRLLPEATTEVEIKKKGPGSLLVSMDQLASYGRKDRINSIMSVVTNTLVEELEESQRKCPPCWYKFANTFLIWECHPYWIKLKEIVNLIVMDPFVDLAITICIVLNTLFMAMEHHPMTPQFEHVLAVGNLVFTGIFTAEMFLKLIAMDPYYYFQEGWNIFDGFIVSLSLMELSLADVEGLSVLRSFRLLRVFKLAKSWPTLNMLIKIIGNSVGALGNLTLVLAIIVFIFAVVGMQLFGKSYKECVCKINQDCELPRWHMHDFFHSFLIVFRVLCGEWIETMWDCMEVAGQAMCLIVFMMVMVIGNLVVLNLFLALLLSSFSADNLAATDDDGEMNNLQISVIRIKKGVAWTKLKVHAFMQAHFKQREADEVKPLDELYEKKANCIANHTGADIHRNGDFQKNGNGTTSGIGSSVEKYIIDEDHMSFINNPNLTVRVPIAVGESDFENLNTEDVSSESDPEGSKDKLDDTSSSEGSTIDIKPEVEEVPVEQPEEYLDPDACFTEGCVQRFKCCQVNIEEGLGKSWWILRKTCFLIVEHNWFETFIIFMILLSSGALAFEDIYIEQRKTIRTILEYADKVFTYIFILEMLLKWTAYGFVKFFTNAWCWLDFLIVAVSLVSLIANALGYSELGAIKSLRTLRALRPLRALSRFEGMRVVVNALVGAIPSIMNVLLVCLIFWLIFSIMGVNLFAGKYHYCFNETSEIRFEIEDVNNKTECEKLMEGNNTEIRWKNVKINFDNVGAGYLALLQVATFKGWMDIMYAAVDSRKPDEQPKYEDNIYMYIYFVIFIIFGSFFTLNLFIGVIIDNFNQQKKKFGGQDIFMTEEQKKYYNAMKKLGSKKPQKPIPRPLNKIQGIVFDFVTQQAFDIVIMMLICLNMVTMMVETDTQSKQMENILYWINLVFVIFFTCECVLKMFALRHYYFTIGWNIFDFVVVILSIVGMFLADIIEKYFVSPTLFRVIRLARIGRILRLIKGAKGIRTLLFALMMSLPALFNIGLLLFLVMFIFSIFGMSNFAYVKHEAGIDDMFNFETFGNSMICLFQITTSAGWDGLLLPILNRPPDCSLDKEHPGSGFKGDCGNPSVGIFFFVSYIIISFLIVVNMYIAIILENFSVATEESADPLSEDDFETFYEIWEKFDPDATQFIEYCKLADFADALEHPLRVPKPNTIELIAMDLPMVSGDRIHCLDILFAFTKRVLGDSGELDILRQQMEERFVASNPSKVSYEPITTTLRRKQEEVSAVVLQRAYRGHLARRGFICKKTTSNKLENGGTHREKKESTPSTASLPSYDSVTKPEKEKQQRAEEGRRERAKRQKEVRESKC

[18] = target: Sodium channel protein type 8 subunit alpha (Homo sapiens) (UniProt Q9UQD0); assay: Inhibition of human Nav1.6 expressed in CHO cells assessed as test to control ratio at 1 uM by whole cell voltage clamp electrophysiological analysis; format: cell-based
[19] = target: T1, Sodium channel protein type 2 subunit alpha; assay: Inhibition of human Nav1.2 expressed in HEK293 cells assessed as test to control ratio at 10 uM measured after 5 mins by whole cell voltage clamp electrophysiological analysis; format: cell-based
Target sequence in this assay (Q99250 whole entry, looked up): as the sequence (Q99250 whole entry, looked up) above

[20] = target: T1, Sodium channel protein type 2 subunit alpha; assay: Inhibition of human Nav1.2 expressed in HEK293 cells assessed as test to control ratio at 1 uM measured after 5 mins by whole cell voltage clamp electrophysiological analysis; format: cell-based
Target sequence in this assay (Q99250 whole entry, looked up): as above

Mus musculus [21] = assay: Antiepileptic activity in MES-induced seizure male ICR mouse model assessed as protection against tonic hind limb extension at 20 mg/kg, ip measured after 30 mins relative to control; format: functional; details: 0.5 h
Mus musculus [22] = assay: Antiepileptic activity in MES-induced seizure male ICR mouse model assessed as protection against tonic hind limb extension administered intraperitoneally for 30 mins; format: functional; details: 0.5 h, route ip
[23] = target: T1, Sodium channel protein type 2 subunit alpha; assay: Inhibition of human Nav1.2 expressed in HEK293 cells assessed as effect on steady state inactivation by measuring half activation potential at 20 uM (reference value: -59 mV); format: cell-based
Target sequence in this assay (Q99250 whole entry, looked up): as above

[24] = Neurotoxicity in male ICR mouse administered intraperitoneally for 30 mins; format: toxicity; details: in vivo, route ip
[25] = target: Sodium channel protein type 1 subunit alpha (Homo sapiens) (UniProt P35498); assay: Inhibition of human Nav1.1 expressed in HEK293 cells assessed as test to control ratio at 0.1 uM by whole cell voltage clamp electrophysiological analysis; format: cell-based
[26] = target: T1, Sodium channel protein type 2 subunit alpha; assay: Inhibition of human Nav1.2 expressed in HEK293 cells assessed as effect on steady state activation by measuring half activation potential at 0.2 uM (reference value: -36 mV); format: cell-based
Target sequence in this assay (Q99250 whole entry, looked up): as above

[27] = Neurotoxicity in male ICR mouse assessed as motor impairment at 35 mg/kg, ip administered for 30 mins by rotarod test relative to control; format: toxicity, organism-based; details: in vivo, 0.5 h
[28] = Neurotoxicity in male ICR mouse assessed as motor impairment at 40 mg/kg, ip administered for 30 mins by rotarod test relative to control; format: toxicity, organism-based; details: in vivo, 0.5 h
Mus musculus [29] = assay: Antiepileptic activity in MES-induced seizure male ICR mouse model assessed as protection against tonic hind limb extension at 5 mg/kg, ip measured after 30 mins relative to control; format: functional; details: 0.5 h
Mus musculus [30] = assay: Antiepileptic activity in 6 Hz(32 mA)-induced seizure male C57BL mouse model assessed as protection against seizure at 5 mg/kg, ip administered for 30 mins by epilepsy test; format: functional; details: 0.5 h
[31] = Neurotoxicity in male ICR mouse assessed as motor impairment at 30 mg/kg, ip administered for 30 mins by rotarod test relative to control; format: toxicity, organism-based; details: in vivo, 0.5 h
[32] = target: T1, Sodium channel protein type 2 subunit alpha; assay: Inhibition of human Nav1.2 expressed in HEK293 cells assessed as effect on steady state inactivation by measuring half activation potential at 0.2 uM (reference value: -54 mV); format: cell-based
Mus musculus [33] = assay: Antiepileptic activity in MES-induced seizure male ICR mouse model assessed as protection against tonic hind limb extension at 15 mg/kg, ip measured after 30 mins relative to control; format: functional; details: 0.5 h
Mus musculus [34] = assay: Antiepileptic activity in MES-induced seizure male ICR mouse model assessed as protection against tonic hind limb extension at 25 mg/kg, ip measured after 30 mins relative to control; format: functional; details: 0.5 h
[35] = Neurotoxicity in male ICR mouse assessed as motor impairment at 37 mg/kg, ip administered for 30 mins by rotarod test relative to control; format: toxicity, organism-based; details: in vivo, 0.5 h
[36] = Neurotoxicity in male ICR mouse assessed as motor impairment at 5 mg/kg, ip administered for 30 mins by rotarod test relative to control; format: toxicity, organism-based; details: in vivo, 0.5 h

| SMILES | IC50 [4] | ED50 (Mus musculus [6]) | T/C [7] | T/C [8] | T/C [10] | Activity (Mus musculus [12]) | IC50 [13] | Activity (Mus musculus [14]) | T/C [16] | T/C [17] | T/C [18] | T/C [19] | T/C [20] | ED50 (Mus musculus [22]) | TD50 at 0.5 h [24] | T/C [25] | also measured |
| --- | --- | --- | --- | --- | --- | --- | --- | --- | --- | --- | --- | --- | --- | --- | --- | --- | --- |
| COc1cccc(-c2cc(N3CC4CC(C3)c3ccccc34)nc(N)n2)c1 | 635 nM | 38 mg/kg | 0.33 | 0.87 | 0.37 | 13% | 21500 nM | 38% | 0.89 | 0.51 | 0.1 | 0.02 | 0.4 | 15.8 mg/kg | 232 mg/kg | 0.93 | Activity [1]: 13%; V1/2 [2]: -32 mV; Activity (Mus musculus [3]): 75%; Activity [5]: 88%; Activity (Mus musculus [9]): 63%; Activity (Mus musculus [11]): 38%; Activity [15]: 38%; Activity (Mus musculus [21]): 50%; V1/2 [23]: -70 mV |
| COc1cccc(-c2cc(N3CCCc4ccc(C)cc4C3)nc(N)n2)c1 | 65 nM | 18.5 mg/kg | 0.02 | 0.39 | 0.07 | 38% | 158 nM | 63% | 0.18 | 0.42 | 0.09 | 0 | 0.04 | 11.1 mg/kg | 31.9 mg/kg | 0.18 | V1/2 [26]: -30 mV; Activity [27]: 63%; Activity [28]: 100%; Activity (Mus musculus [29]): 25%; Activity (Mus musculus [30]): 13%; Activity [31]: 38%; V1/2 [32]: -56 mV; Activity (Mus musculus [33]): 44%; Activity (Mus musculus [34]): 88%; Activity [35]: 88% |
| CN(C)CCCN1c2ccccc2Sc2ccc(Cl)cc21 [CHLORPROMAZINE] |  |  |  |  |  |  |  |  |  |  |  |  |  |  |  |  | Activity [36]: 88% |
